Data on 31 compounds can be found in patent US5021431A, “Imidazolyl alkyl guanidine derivatives, processes for their preparation and pharmaceutical preparations containing these compounds” (Heumann Pharma GmbH & Co., priority 1985, dated 1991).

Each structure is given as a SMILES string. Where a name gives a salt, the structure may show the parent alone. Read-outs that look alike come from different tables or passages of the source.

One experiment has as its target H1 receptor (Cavia porcellus, UniProt P31389). In words: cell-based. The settings on record: isolated ileum of the guinea pig; for Kb: read-out: pA2 ileum (H1-antagonistic effect) (converted). An excerpt: The new class of structures according to the invention has both an H1 -antagonistic and an H2 -agonistic active component. […] One recognized method for determining H1 -antagonistic activity is the determination of the pA2 -values in vitro (O. ARUNLAKSHANA and H. O. SCHILD (1959) Some quantitative uses of drug antagonists--Br. J. Pharmacol. Chemother. 14, 48-58).
(§1) Pharmacological Data (determined on the isolated atrium or ileum of the guinea-pig)
(§2) The values listed below represent the H2 -agonistic (pD2) and H1 -antagonistic (pA2) effect of the dual active compounds

In the next experiment the target is T1, histamine-H2 receptors (Cavia porcellus, UniProt P47747).
T1 construct: determined on the isolated atrium or ileum of the guinea-pig; from tissue; host or cells: isolated right atrium of the guinea-pig
T1 sequence (P47747 whole entry): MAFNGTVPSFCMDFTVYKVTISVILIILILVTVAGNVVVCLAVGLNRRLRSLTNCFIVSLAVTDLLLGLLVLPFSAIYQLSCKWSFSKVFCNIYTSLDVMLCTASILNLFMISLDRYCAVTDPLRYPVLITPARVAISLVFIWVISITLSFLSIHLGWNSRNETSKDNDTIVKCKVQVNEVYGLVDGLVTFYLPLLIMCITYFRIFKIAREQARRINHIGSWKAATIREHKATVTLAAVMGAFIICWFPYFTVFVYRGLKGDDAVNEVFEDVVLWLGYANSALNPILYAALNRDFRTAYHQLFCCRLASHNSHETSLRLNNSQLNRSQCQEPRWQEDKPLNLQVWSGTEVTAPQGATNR
In words: cell-based. More on the design: species or system guinea-pig.
Description: For determining the H2 -agonistic activity (pD2 -values), use is made of the method according to J. M. VAN ROSSUM, (1963), Cumulative dose-response curves, II, Technique for the making of dose-response curves in isolated organs and the evaluation of drug parameters, Arch. Int. Pharmacodyn. Ther. 143, 299-307.
as §1, §2

Where [1] appears, read: isolated right atrium of the guinea pig, read-out: pD2 right atrium (H2-agonistic effect) (converted).
Where [2] appears, read: isolated right atrium of the guinea pig.

Chain of H1 receptor (P31389 whole entry): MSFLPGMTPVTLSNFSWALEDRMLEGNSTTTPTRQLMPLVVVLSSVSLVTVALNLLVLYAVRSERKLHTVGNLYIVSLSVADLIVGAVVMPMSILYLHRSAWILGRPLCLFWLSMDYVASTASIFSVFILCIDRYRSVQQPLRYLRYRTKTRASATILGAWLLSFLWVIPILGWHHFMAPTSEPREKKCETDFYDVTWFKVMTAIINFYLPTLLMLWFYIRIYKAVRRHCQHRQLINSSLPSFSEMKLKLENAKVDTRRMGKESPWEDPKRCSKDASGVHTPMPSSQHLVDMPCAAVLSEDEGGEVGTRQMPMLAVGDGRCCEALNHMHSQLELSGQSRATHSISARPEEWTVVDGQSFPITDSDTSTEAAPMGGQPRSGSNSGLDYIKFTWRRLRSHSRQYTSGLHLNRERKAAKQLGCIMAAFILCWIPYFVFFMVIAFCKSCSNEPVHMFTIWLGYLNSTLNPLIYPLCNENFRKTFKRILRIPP

In the case of `N=C(NCCCc1c[nH]cn1)NCCN(c1ccc(F)cc1)c1ccccn1` [Example 148, N^1-[3-(Imidazol-4-yl)propyl]-N^2-[2-(N-(2-pyridyl)N-(4-fluorophenyl)amino)ethyl]-guanidine trihydrochloride], the Kb on H1 receptor is 0.0158 µM. At histamine-H2 receptors (setting [1]), the EC50 was 0.316 µM.
On to `Cc1ccc(N(C)CCCNC(=N)NCCCc2c[nH]cn2)nc1` [Example 10, N^1-[3-[N-(5-Methyl-pyridin-2-yl)-methylamino]propyl]-N^2-[3-(1H-imidazol-4-yl)propyl]guanidine trihydrochloride], for which the Kb at H1 receptor is 0.112 µM. Besides, the EC50 on histamine-H2 receptors (setting [1]) is 0.891 µM.
For the compound `N=C(NCCCc1c[nH]cn1)NCCCC(c1ccccc1)c1ccccn1` (stereo not drawn) [Example 136, N-[3-(Imidazol-4-yl)propyl]-N'-[4-phenyl-4-(pyrid-2-yl)butyl]-guanidine], on H1 receptor, the “pA2 ileum (H1-antagonistic effect)” value is 6.6. Further, the EC50 on histamine-H2 receptors (setting [1]) was 0.112 µM.
As for `N=C(NCCCc1c[nH]cn1)NCCC(c1ccccn1)c1cccs1` (stereo not drawn) [Example 134, N-[3-(Imidazol-4-yl)propyl]-N'-[3-(pyrid-2-yl)-3-(2thienyl)propyl]-guanidine], the Kb on H1 receptor was 0.0501 µM. In addition, the EC50 at histamine-H2 receptors (setting [1]) was 0.0933 µM.
On the same counts, the results for `N=C(NCCCc1c[nH]cn1)NCCN(Cc1ccccc1)c1ccc(Br)cc1` [Example 104, N^1-[3-(4-Imidazolyl)propyl]-N^2-[2-(N-benzyl-N-(4-bromophenyl)amino)ethyl]-guanidine trihydrochloride] are 0.0575 µM and 6.92 µM.
The matching figures for `COc1ccc(CN(CCN=C(N)NCCCc2c[nH]cn2)c2ccccn2)cc1` [Example 142, N^1-[3-(1H-Imidazol-4-yl)propyl]-N2-[2-[N-(4-methoxybenzyl)-N-(pyridin-2-yl)-amino]ethyl]-guanidine]: 0.00832 µM and 1.58 µM.
With `Cc1[nH]cnc1CCCNC(=N)NCCC(c1ccccc1)c1ccccc1` [Example 96, N-[3-(5-Methylimidazol-4-yl)propyl]-N'-(3,3-diphenylpropyl)-guanidine], at H1 receptor, the “pA2 ileum (H1-antagonistic effect)” value was found to be 6.9 and the Kb is 0.126 µM. Further, the EC50 on histamine-H2 receptors (setting [1]) is 0.126 µM.
As to `CC(CSCc1ccccn1)NC(=N)NCCCc1c[nH]cn1` (stereo not drawn) [Example 121, N-[3-(Imidazol-4-yl)propyl]-N'-[1-methyl-2-[(pyrid-2-yl)methylthio]-ethyl]-guanidine], the Kb at H1 receptor is 2 µM. Besides, the EC50 on histamine-H2 receptors (setting [1]) was 0.0513 µM.
With `N=C(NCCCc1c[nH]cn1)NCCN(Cc1ccc(Cl)cc1)c1ccccn1` [Example 141, N^1-[3-(1H-Imidazol-4-yl)propyl]-N^2-[2-[N-(4-chlorobenzyl) N-(pyridin-2-yl).amino]ethyl]-guanidine], the Kb at H1 receptor was 0.0123 µM. Moreover, the EC50 at histamine-H2 receptors (setting [1]) is 1 µM.
With `Cc1cc(Br)cnc1N(CCNC(=N)NCCCc1c[nH]cn1)Cc1ccccc1` [Example 144, N^1-[2-[N-(5-Bromo-3-methyl-pyridin-2-yl)-benzylamino]ethyl]-N^2-[3-(1H-imidazol-4-yl)propyl]-guanidine trihydrochloride], the Kb on H1 receptor is 0.398 µM. Moreover, the EC50 at histamine-H2 receptors (setting [1]) is 6.03 µM.
For `Cc1ccc(C(SCCNC(=N)NCCCc2c[nH]cn2)c2ccccc2)cc1` (stereo not drawn) [Example 62, N-[3-(Imidazol-4-yl)propyl]-N'-[2-[(p-methyl-α-phenylbenzyl)thio]ethyl]-guanidine], at H1 receptor, the Kb was 11.5 µM. Also, on histamine-H2 receptors (setting [1]), the EC50 was 3.89 µM.
With `N=C(NCCCc1c[nH]cn1)NCCCC(c1ccccc1)c1ccccc1` [Example 97, N-[3-(Imidazol-4-yl)propyl]-N'(4,4-diphenylbutyl)-guanidine], the Kb at H1 receptor was 0.158 µM. At histamine-H2 receptors (setting [1]), the EC50 was 0.2 µM.
Consider `Cc1[nH]c(CN(C)C)nc1CSCCNC(=N)NCCCc1c[nH]cn1` [Example 51, N-[2-[(2-Dimethylaminomethyl-5-methylimidazol-4-yl)methylthio]ethyl]-N'-[3-(imidazol-4-yl)propyl]-guanidine], for which, at H1 receptor, the Kb is 3.16 µM. Moreover, at histamine-H2 receptors (setting [1]), the EC50 was 0.0676 µM.
Turning to `N=C(NCCCc1c[nH]cn1)NCCN(c1ccccc1)c1ccc(F)cc1` [Example 146, N^1-[3-(Imidazol-4-yl)propyl]-N^2-[2-N-(phenyl-N(4-fluorophenyl)amino)ethyl]-guanidine trihydrochloride], the Kb on H1 receptor was 1 µM. Moreover, on histamine-H2 receptors (setting [1]), the EC50 was 1.1 µM.
Consider `N=C(NCCCc1c[nH]cn1)NCCSCc1cccs1` [Example 105, N-[3-(Imidazol-4-yl)propyl]-N'-[2-(2-thenylthio)ethyl]-guanidine], for which the Kb at H1 receptor is 1.23 µM. Besides, the EC50 at histamine-H2 receptors is 0.0513 µM.
For `N=C(NCCCc1c[nH]cn1)NCCC(c1ccc(Br)cc1)c1ccccn1` (stereo not drawn) [Example 131, N-[3-(4-Bromophenyl)-3-(pyrid-2-yl)propyl]-N'-[3-(imidazol-4-yl)propyl]-guanidine], the Kb on H1 receptor is 0.316 µM. Moreover, the EC50 at histamine-H2 receptors (setting [1]) is 0.0832 µM.
For the compound `N=C(NCCCc1c[nH]cn1)NCCC(c1ccc(Cl)cc1)c1ccccn1` (stereo not drawn) [Example 129, N-[3-(4-Chlorophenyl)-3-(pyrid-2-yl)propyl]-N'-[3-(imidazol-4-yl)propyl]-guanidine], the Kb at H1 receptor is 0.0316 µM. In addition, on histamine-H2 receptors (setting [1]), the EC50 is 0.0631 µM.
On to `N=C(NCCCc1c[nH]cn1)NCCN(Cc1ccccc1)c1ccccc1` [Example 101, N^1-[3-(4-Imidazolyl)propyl]-N^2-[2-(N-benzyl-N-phenylamino)-ethyl]-guanidine trihydrochloride], for which the “pA2 ileum (H1-antagonistic effect)” value on H1 receptor is on record as 7.41. Also, the “pD2 right atrium (H2-agonistic effect)” value at histamine-H2 receptors (setting [2]) is 6.15.
Regarding `N=C(NCCCc1c[nH]cn1)NCCN(c1ccccc1)c1ccccn1` [Example 147, N^1-[3-(Imidazol-4-yl)propyl]-N^2-[2-(N-(2-pyridyl)-N-phenylamino)ethyl]-guanidine trihydrochloride], the Kb at H1 receptor was 0.126 µM. In addition, the EC50 at histamine-H2 receptors (setting [1]) was 0.1 µM.
As to `N=C(NCCCc1c[nH]cn1)NCCC(c1ccccc1)c1ccccn1` (stereo not drawn) [Example 127], at H1 receptor, the “pA2 ileum (H1-antagonistic effect)” value turned out to be 7.28 and the Kb was 0.0525 µM. The “pD2 right atrium (H2-agonistic effect)” value at histamine-H2 receptors (setting [2]) is 7.4. At histamine-H2 receptors (setting [1]), the EC50 is 0.0398 µM.
Consider `N=C(NCCCc1c[nH]cn1)NCCC(c1ccccc1)c1ccccc1` [Example 78, N-[3-(Imidazol-4-yl)propyl]-N'-(3.3-diphenylpropyl)-guanidine], for which, on H1 receptor, the “pA2 ileum (H1-antagonistic effect)” value came to 7.20 and the Kb is 0.0631 µM. For the same compound, at histamine-H2 receptors (setting [1]), the EC50 is 0.0676 µM.
For `NC(=NCCC(c1ccc(F)cc1)c1ccccn1)NCCCc1cnc[nH]1` (stereo not drawn) [Example 133, N-[3-(4-Fluorophenyl)-3-(pyrid-2-yl)propyl]-N'-[3-(imidazol-4-yl)propyl]-guanidine], the Kb at H1 receptor was 0.0316 µM. Moreover, on histamine-H2 receptors (setting [1]), the EC50 was 0.0126 µM.
On the same counts, the results for `N=C(NCCCc1c[nH]cn1)NCCN(Cc1ccccc1)c1ccc(Cl)cc1` [Example 103, N^1-[3-(4-Imidazolyl)propyl]-N^2-[2-(N-benzyl-N-(4-chlorophenyl)amino)ethyl]-guanidine trihydrochloride] are 0.0295 µM and 2.69 µM.
Regarding `N=C(NCCCc1c[nH]cn1)NCCSC(c1ccccc1)c1ccccn1` (stereo not drawn) [Example 123, N-[3-(Imidazol-4-yl)propyl]-N'-[2-[(phenyl(pyrid-2-yl)methyl)thio]ethyl]-guanidine], at H1 receptor, the “pA2 ileum (H1-antagonistic effect)” value turned out to be 7.0. Also, at histamine-H2 receptors (setting [1]), the EC50 is 0.224 µM.
In the case of `N=C(NCCCCc1cccnc1)NCCCc1c[nH]cn1` [Example 12, N^1-[4-(Pyridin-3-yl)butyl]-N^2-[3-(1H-imidazol-4-yl)propyl]guanidine trihydrochloride], at H1 receptor, the Kb is 0.562 µM. The EC50 on histamine-H2 receptors (setting [1]) is 0.2 µM.
On the same counts, the results for `N=C(NCCCc1c[nH]cn1)NCCN(Cc1ccccc1)c1ccc(F)cc1` [Example 102, N^1-[3-(4-Imidazolyl)propyl]-N^2-[2-(N-benzyl-N-(4-fluorophenyl)amino)ethyl]-guanidine trihydrochloride] are 0.0251 µM and 0.234 µM.
With `NC(=NCCN(Cc1ccccc1)c1ccccn1)NCCCc1c[nH]cn1` [Example 140, N^1-[3-(4-imidazolyl)propyl]-N^2-[2-(N-benzyl-N-(pyrid-2-yl)-amino)ethyl]-guanidine trihydrochloride], the Kb on H1 receptor is 0.00891 µM. Further, at histamine-H2 receptors (setting [1]), the EC50 was 1.26 µM.
The matching figures for `Cc1cc(Br)cnc1CCCCNC(=N)NCCCc1c[nH]cn1` [Example 17, N^1-[4-(5-Bromo-3-methyl-pyridin-2-yl)butyl]-N^2 [3-(1H-imidazol-4-yl)propyl]-guanidine trihydrochloride]: 0.00324 µM and 1.2 µM.
Regarding `CC(SCCNC(=N)NCCCc1c[nH]cn1)c1ccccc1` (stereo not drawn) [Example 60, N-[3-(Imidazol-4-yl)propyl]-N'-[2-[(1-phenylethyl)thio]ethyl]-guanidine], the Kb on H1 receptor was 2.29 µM. Also, at histamine-H2 receptors (setting [1]), the EC50 was 0.288 µM.
The matching figures for `N=C(NCCCc1c[nH]cn1)NCCN(c1ccccc1)c1ccccc1` [Example 145, N^1-[3-(Imidazol-4-yl)propyl]-N^2-[2-(diphenylamino)ethyl]-guanidine trihydrochloride]: 0.398 µM and 6.03 µM.
On the same counts, the results for `NC(=NCCN(Cc1ccc(F)cc1)c1ccccn1)NCCCc1c[nH]cn1` [Example 143, N^1-[3-(1H-Imidazol-4-yl)propyl]-N^2-[2-[N-(4-fluorobenzyl)-N-(pyridin-2-yl)-amino]ethyl]-guanidine] are 0.00257 µM and 1.95 µM.
